From US8415469B2, “Compounds and methods for kinase modulation, and indications therefor” (Plexxikon Inc., priority 2005, dated 2013)

Key:
Assay type in all cases: biochemical
Flt1 = target: T1, Flt1 (Homo sapiens, UniProt P17948); assay: AlphaScreen kinase assay, Flt1; settings: read-out: IC50, activity toward kinase Flt1
T1 construct: P1826.pETN6 BI-PTP FLT1 M799-D1165-X WT; His6 (N); made in house; host or cells: E. coli (PTP1B co-expressed)
T1 sequence (P17948 with tags, fused parts or gaps): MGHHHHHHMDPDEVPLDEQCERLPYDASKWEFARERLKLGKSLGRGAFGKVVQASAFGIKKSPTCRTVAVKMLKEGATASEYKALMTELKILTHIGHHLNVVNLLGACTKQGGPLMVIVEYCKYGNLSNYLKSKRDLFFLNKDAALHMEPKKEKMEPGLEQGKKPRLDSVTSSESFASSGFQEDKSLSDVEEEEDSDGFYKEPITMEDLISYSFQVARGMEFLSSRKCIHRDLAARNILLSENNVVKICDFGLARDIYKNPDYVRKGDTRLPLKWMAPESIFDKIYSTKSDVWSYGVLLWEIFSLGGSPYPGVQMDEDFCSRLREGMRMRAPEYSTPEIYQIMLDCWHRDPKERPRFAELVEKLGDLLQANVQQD

FGFR1 = target: T2, FGFR1 (Homo sapiens, UniProt P11362, C488A/C584S); assay: AlphaScreen kinase assay, FGFR1; settings: read-out: IC50, activity toward kinase FGFR
T2 construct: P1351.pET N6 BI-PTP FGFR A458-E765-X C488A, C584S; made in house; host or cells: E. coli (PTP1B co-expressed)
T2 sequence (P11362 458-765 C488A/C584S): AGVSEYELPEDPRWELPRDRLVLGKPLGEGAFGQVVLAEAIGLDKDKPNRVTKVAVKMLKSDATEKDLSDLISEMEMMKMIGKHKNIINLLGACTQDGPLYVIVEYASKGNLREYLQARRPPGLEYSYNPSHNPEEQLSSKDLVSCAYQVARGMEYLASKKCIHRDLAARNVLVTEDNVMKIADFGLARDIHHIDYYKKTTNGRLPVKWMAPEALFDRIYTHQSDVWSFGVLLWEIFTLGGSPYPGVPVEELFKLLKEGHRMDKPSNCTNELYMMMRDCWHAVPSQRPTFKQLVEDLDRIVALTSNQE

Jnk3 = target: T3, Jnk3 (Homo sapiens, UniProt P53779); assay: AlphaScreen kinase assay, Jnk3; settings: read-out: IC50, activity toward kinase Jnk3
T3 construct: purchased Upstate Biotechnology
T3 sequence (P53779 whole entry): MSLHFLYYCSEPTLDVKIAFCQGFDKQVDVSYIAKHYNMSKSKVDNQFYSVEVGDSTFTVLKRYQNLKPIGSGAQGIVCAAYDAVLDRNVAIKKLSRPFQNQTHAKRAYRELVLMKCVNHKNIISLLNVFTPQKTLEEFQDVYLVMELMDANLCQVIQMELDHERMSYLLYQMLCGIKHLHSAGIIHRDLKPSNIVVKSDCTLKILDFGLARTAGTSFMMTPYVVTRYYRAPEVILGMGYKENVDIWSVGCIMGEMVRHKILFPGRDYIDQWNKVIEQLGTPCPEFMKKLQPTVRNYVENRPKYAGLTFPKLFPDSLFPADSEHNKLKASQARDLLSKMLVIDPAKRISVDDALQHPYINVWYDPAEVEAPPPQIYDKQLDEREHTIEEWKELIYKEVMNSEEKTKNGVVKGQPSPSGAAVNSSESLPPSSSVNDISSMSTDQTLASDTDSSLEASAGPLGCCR

Kit = target: T4, Kit (Homo sapiens, UniProt P10721); assay: AlphaScreen kinase assay, Kit; settings: read-out: IC50, activity toward kinase Kit
T4 construct: P1332.N6 BI PTP KIT M552-K948-X COD; His6 (N); made in house; host or cells: E. coli (PTP1B co-expressed)
T4 sequence (P10721 with tags, fused parts or gaps): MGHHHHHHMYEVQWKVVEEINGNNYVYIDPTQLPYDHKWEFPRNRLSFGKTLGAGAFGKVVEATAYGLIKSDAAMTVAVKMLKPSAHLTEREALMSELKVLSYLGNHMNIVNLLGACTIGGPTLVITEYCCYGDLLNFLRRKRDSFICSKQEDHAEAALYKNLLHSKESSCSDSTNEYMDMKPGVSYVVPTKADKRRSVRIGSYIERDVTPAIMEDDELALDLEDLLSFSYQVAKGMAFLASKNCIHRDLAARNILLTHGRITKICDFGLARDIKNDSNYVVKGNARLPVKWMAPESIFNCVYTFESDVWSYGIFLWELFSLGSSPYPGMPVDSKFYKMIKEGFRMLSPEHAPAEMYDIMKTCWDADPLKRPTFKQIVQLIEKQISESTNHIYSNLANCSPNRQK

Ret = target: T5, Ret (Homo sapiens, UniProt P07949); assay: AlphaScreen kinase assay, Ret; settings: read-out: IC50, activity toward kinase Ret
T5 construct: P1378.pET-SF BI-PTP RET H661-R1012 HIS; made in house
T5 sequence (P07949 with tags, fused parts or gaps): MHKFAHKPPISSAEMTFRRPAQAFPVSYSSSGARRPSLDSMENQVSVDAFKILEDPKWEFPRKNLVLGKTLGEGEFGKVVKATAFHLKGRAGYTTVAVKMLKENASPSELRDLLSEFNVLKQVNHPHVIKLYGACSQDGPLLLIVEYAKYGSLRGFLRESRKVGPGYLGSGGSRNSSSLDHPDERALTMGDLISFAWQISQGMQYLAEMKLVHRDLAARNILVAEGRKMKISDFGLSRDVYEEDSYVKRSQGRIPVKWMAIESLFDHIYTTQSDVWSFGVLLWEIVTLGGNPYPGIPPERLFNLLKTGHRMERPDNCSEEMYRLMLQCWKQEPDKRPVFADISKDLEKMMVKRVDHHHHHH

Kdr = target: T6, Kdr (Homo sapiens, UniProt P35968); assay: Z'-Lyte FRET kinase assay (Invitrogen), Kdr; settings: read-out: IC50, activity toward kinase Kdr
T6 construct: purchased Invitrogen (assay run by Invitrogen)
T6 sequence (P35968 20-1356): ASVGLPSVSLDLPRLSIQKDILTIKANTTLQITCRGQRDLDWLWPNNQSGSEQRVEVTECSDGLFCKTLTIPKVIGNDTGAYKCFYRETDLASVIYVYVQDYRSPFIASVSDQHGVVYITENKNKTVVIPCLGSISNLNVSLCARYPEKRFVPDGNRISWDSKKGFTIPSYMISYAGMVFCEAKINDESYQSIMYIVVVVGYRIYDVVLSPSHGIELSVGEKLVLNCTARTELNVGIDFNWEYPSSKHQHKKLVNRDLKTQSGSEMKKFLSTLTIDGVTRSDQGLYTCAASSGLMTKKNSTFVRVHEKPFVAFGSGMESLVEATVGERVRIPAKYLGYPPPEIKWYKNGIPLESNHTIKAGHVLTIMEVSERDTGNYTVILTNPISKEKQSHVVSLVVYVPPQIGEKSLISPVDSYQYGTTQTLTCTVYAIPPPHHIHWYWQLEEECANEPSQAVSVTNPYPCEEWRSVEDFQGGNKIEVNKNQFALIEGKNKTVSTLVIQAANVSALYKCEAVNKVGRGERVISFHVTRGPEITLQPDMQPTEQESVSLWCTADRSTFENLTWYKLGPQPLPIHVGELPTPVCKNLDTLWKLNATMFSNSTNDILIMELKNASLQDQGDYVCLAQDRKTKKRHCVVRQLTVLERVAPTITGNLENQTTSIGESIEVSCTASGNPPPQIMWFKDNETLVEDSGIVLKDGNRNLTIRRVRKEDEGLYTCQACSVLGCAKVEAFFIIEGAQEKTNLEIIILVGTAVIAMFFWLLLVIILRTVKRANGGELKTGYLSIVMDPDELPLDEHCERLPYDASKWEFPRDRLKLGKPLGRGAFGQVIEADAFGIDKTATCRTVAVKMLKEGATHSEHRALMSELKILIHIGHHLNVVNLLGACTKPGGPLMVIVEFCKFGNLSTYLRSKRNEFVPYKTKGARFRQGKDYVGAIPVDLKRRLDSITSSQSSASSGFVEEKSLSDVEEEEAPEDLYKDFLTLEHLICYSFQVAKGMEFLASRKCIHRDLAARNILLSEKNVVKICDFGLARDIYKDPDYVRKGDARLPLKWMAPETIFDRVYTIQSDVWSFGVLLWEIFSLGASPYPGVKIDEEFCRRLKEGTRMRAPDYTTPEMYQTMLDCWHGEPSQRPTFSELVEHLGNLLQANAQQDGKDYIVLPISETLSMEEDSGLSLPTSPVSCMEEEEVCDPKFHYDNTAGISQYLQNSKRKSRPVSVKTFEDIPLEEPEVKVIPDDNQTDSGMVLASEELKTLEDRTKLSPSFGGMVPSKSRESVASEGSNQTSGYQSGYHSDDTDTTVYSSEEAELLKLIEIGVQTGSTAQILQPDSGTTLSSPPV

Fms = target: T7, Fms (Homo sapiens, UniProt P07333); assay: AlphaScreen kinase assay, Fms; settings: read-out: IC50, activity toward kinase Fms
T7 construct: purchased Upstate Biotechnology
T7 sequence (P07333 20-972): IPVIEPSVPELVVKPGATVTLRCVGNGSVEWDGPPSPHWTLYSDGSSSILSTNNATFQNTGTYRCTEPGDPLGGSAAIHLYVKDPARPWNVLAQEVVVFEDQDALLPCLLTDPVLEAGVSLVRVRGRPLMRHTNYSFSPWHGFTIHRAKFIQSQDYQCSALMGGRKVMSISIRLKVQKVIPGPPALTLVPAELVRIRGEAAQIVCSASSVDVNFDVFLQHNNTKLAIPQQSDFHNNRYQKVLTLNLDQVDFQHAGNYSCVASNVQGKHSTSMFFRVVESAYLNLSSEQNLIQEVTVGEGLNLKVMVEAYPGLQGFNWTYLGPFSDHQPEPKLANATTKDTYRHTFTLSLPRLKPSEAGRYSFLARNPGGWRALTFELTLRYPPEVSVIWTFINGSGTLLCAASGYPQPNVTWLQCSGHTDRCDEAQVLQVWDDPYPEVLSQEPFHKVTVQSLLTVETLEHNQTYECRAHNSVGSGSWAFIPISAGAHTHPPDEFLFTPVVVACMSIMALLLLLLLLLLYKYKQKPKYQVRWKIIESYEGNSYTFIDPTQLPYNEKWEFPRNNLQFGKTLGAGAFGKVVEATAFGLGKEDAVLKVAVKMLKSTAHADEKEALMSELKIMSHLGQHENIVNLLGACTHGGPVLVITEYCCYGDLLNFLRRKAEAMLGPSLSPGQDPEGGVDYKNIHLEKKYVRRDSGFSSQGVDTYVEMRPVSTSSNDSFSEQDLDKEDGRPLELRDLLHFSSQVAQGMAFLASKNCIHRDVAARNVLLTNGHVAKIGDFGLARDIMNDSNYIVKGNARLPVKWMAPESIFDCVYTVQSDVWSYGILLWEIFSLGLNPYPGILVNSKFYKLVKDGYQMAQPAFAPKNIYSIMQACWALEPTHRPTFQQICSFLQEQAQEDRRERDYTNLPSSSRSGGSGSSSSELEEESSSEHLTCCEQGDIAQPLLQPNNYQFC

B-Raf V600E = target: T8, B-Raf V600E (Homo sapiens, UniProt P15056, V600E); assay: AlphaScreen kinase assay, B-Raf V600E; settings: read-out: IC50, activity toward kinase B-Raf V600E
T8 construct: P4254. pFastBacBD-CDC37 BRAF D437-K722-X, V600E; His6 with pFastBac HT leader (TEV site) (N); made in house; host or cells: Sf9 (baculovirus; chaperone CDC37 co-expressed)
T8 sequence (P15056 with tags, fused parts or gaps V600E): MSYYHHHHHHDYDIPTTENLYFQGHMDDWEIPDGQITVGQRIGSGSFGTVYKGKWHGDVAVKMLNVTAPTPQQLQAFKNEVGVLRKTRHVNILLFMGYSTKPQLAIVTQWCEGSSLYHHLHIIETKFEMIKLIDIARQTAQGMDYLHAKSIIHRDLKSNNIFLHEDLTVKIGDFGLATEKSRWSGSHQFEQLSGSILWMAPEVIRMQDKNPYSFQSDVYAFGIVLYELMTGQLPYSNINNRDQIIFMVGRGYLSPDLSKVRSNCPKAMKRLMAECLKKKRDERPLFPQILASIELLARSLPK

B-Raf = target: T9, B-Raf (Homo sapiens, UniProt P15056); assay: AlphaScreen kinase assay, B-Raf; settings: read-out: IC50, activity toward kinase B-Raf
T9 construct: purchased Upstate Biotechnology
T9 sequence (P15056 whole entry): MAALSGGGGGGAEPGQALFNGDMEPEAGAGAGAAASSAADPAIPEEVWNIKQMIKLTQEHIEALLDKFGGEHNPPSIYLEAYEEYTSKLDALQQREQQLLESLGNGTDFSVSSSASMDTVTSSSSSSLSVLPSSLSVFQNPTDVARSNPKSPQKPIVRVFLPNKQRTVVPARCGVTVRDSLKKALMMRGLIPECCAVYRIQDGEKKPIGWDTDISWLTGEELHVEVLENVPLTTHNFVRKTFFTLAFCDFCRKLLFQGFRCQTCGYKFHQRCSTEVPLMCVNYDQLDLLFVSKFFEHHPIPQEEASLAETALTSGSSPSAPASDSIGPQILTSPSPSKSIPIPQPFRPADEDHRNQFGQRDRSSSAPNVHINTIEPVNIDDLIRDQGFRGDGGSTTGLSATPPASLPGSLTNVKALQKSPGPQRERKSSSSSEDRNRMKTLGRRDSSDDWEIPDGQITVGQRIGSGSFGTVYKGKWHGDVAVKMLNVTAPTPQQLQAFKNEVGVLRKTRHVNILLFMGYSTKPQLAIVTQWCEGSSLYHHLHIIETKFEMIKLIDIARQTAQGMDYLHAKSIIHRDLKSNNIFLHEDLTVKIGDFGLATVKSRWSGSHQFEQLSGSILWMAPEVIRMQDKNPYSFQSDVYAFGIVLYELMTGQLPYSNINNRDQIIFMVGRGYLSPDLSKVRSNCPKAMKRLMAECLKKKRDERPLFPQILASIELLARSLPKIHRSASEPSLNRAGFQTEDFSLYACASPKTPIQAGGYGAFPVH

Jnk1 = target: T10, Jnk1 (Homo sapiens, UniProt P45983); assay: AlphaScreen kinase assay, Jnk1; settings: read-out: IC50, activity toward kinase Jnk1
T10 construct: purchased Upstate Biotechnology
T10 sequence (P45983 whole entry): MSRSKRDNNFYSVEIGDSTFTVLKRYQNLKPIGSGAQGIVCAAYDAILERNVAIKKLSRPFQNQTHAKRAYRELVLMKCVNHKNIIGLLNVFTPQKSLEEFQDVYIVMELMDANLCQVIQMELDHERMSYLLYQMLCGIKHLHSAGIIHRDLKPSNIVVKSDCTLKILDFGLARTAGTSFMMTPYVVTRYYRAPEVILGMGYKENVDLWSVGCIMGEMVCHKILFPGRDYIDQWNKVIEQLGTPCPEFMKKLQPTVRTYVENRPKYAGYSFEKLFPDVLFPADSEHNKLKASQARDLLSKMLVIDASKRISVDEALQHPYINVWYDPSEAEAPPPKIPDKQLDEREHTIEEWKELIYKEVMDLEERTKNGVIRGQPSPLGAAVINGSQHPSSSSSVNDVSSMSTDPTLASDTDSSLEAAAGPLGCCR

c-Raf-1 = target: T11, c-Raf-1 (Homo sapiens, UniProt P04049); assay: AlphaScreen kinase assay, c-Raf-1; settings: read-out: IC50, activity toward kinase c-Raf-1
T11 construct: purchased Upstate Biotechnology

Measured: IC50

Cc1cc(C(=O)c2c[nH]c3ncc(-c4ccsc4)cc23)no1 [Compound P-0640]
≤ 10 µM: Flt1 | FGFR1 | Jnk3 | Kit | Ret | Kdr

COc1cccc(Nc2c[nH]c3ncccc23)c1 [Compound P-1490, (3-Methoxy-phenyl)-(1H-pyrrolo[2,3-b]pyridin-3-yl)-amine]
≤ 10 µM: Jnk3 | Kit | Fms

Clc1cccc(Nc2c[nH]c3ncccc23)c1 [Compound P-1489, (3-Chloro-phenyl)-(1H-pyrrolo[2,3-b]pyridin-3-yl)-amine]
≤ 10 µM: Jnk3 | Kit | Fms

c1cc(Cc2c[nH]c3ncccc23)cc(OCCOC2CCCCO2)c1 (stereo not drawn) [Compound P-0326]
≤ 10 µM: Flt1 | FGFR1 | Kit | Kdr

NC(=O)c1ccc(-c2cnc3[nH]ccc3c2)cc1 [Compound P-0659]
≤ 10 µM: Jnk3 | Kit | Ret

O=C(Nc1ccc(F)cc1)Nc1cccc(C(=O)c2c[nH]c3ncccc23)c1 [Compound P-1704, 1-(4-Fluoro-phenyl)-3-[3-(1H-pyrrolo[2,3-b]pyridine-3-carbonyl)-phenyl]-urea]
≤ 10 µM: Jnk3 | Kit | B-Raf V600E | B-Raf | Fms

Oc1ccc(Cc2c[nH]c3ncc(-c4ccsc4)cc23)cc1O [Compound P-0683]
not listed: Fms | Jnk1 | c-Raf-1
≤ 10 µM: all other assays above

c1cncc(-c2cnc3[nH]cc(Cc4ccc5c(c4)OCCO5)c3c2)c1 [Compound P-1529, 3-(2,3-Dihydro-benzo[1,4]dioxin-6-ylmethyl)-5-pyridin-3-yl-1H-pyrrolo[2,3-b]pyridine]
not listed: Ret | Kdr | Jnk1 | c-Raf-1
≤ 10 µM: all other assays above

O=C(Nc1ccccc1)Nc1cccc(C(=O)c2c[nH]c3ncccc23)c1 [Compound P-1703, 1-Phenyl-3-[3-(1H-pyrrolo[2,3-b]pyridine-3-carbonyl)-phenyl]-urea]
≤ 10 µM: Jnk3 | Kit | B-Raf V600E | B-Raf | Fms

COc1cccc(C(=O)c2c[nH]c3ncc(-c4ccccc4)cc23)c1 [Compound P-0371]
≤ 10 µM: Flt1 | FGFR1 | Jnk3 | Kit | Ret

c1ccc(COc2ccccc2Nc2c[nH]c3ncccc23)cc1 [Compound P-1505, (2-Benzyloxy-phenyl)-(1H-pyrrolo[2,3-b]pyridin-3-yl)-amine]
≤ 10 µM: Flt1 | Jnk3 | Kit | B-Raf V600E | Fms

OC(c1ccc(OCc2nc3ccccc3[nH]2)c(F)c1)c1c[nH]c2ncccc12 (stereo not drawn) [Compound P-1898]
≤ 10 µM: Jnk1

O=C(Nc1cccc(F)c1)Nc1cccc(C(=O)c2c[nH]c3ncccc23)c1 [Compound P-1716, 1-(3-Fluoro-phenyl)-3-[3-(1H-pyrrolo[2,3-b]pyridine-3-carbonyl)-phenyl]-urea]
≤ 10 µM: Jnk3 | B-Raf V600E | B-Raf | Fms

COc1ccc(Nc2ccc3cc[nH]c3n2)cc1 [Compound P-1355, (4-Methoxy-phenyl)-(1H-pyrrolo[2,3-b]pyridin-6-yl)-amine]
≤ 10 µM: Jnk3

O=C(Nc1cccc(C(=O)c2c[nH]c3ncccc23)c1)Nc1ccc(C(F)(F)F)cc1Cl [Compound P-1713, 1-(2-Chloro-4-trifluoromethyl-phenyl)-3-[3-(1H-pyrrolo[2,3-b]pyridine-3-carbonyl)-phenyl]-urea]
≤ 10 µM: Jnk3 | Kit | B-Raf V600E | c-Raf-1 | B-Raf | Fms

Clc1ccc(-c2cnc3[nH]ccc3c2)s1 [Compound P-1088]
≤ 10 µM: Jnk3

COc1ccc(CNc2ccc(Cc3c[nH]c4ncccc34)cn2)cc1 [Compound P-0274]
≤ 10 µM: Flt1 | FGFR1 | B-Raf V600E | Fms | Kdr

COc1ccc(F)c(C(=O)c2c[nH]c3ncccc23)c1 [Compound P-0103]
≤ 10 µM: Flt1 | FGFR1 | Kit | Ret | Fms | Kdr

O=C(c1ccccc1O)c1c[nH]c2ncc(-c3cccs3)cc12 [Compound P-0757]
≤ 10 µM: Flt1 | Jnk3 | Kit | Ret

c1csc(-c2ccnc3[nH]ccc23)c1 [Compound P-0431]
≤ 10 µM: Jnk1

O=C(c1ccc(-c2cnc3[nH]ccc3c2)cc1)N1CCCC1 [Compound P-0625]
≤ 10 µM: Jnk3 | Kit

Cc1ccc(S(=O)(=O)Nc2ccc(F)c(C(=O)c3c[nH]c4ncc(Cl)cc34)c2F)cc1 [Compound P-1842, N-[3-(5-Chloro-1H-pyrrolo[2,3-b]pyridine-3-carbonyl)-2,4-difluoro-phenyl]-4-methyl-benzenesulfonamide]
≤ 10 µM: Jnk1 | B-Raf V600E | B-Raf

Oc1cccc(C(O)c2c[nH]c3ncc(-c4cccs4)cc23)c1 (stereo not drawn) [Compound P-0710]
≤ 10 µM: FGFR1 | Jnk3 | Ret | B-Raf V600E

c1ccc2sc(-c3cnc4[nH]ccc4c3)cc2c1 [Compound P-1087]
≤ 10 µM: Jnk3

CC(=O)Nc1cccc(Nc2cnc3[nH]ccc3c2)c1 [Compound P-1032]
≤ 10 µM: Jnk3

O=C(c1ccccc1O)c1c[nH]c2ncc(Br)cc12 [Compound P-0263]
≤ 10 µM: Jnk3 | Kit

COc1cnc2[nH]cc(Sc3ccccn3)c2c1 [Compound P-1561]
≤ 10 µM: FGFR1 | Jnk3 | B-Raf V600E
